Measured values from patent US12077503B2, “Substituted cyclic amides and their use as herbicides” (FMC CORPORATION, priority 2015, dated 2024).

Columns and labels:
Type in all cases: in vivo
[1] = test system: ragweed (common ragweed, Ambrosia elatior); assay: Test A preemergence; conditions: Preemergence, 1000 g ai/ha; 0 is no effect, 100 is complete control
Summary of the method: (§1)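 Preemergence soil spray on seeded pots or post-emergence spray on 1–2 leaf plants, in loam–sand blend. Greenhouse ~10 d. Visual rating 0–100 against untreated plants.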

[2] = test system: pigweed (Amaranthus retroflexus); assay: Test A preemergence; conditions: Preemergence, 1000 g ai/ha; 0 is no effect, 100 is complete control
[3] = test system: barnyardgrass (Echinochloa crus-galli); assay: Test A preemergence; conditions: Preemergence, 1000 g ai/ha; 0 is no effect, 100 is complete control
Summary of the method: as §1

Kochia (Kochia scoparia) [4] = assay: Test A preemergence; conditions: Preemergence, 1000 g ai/ha; 0 is no effect, 100 is complete control
Summary of the method: as §1

[5] = test system: ryegrass, Italian (Italian ryegrass, Lolium multiflorum); assay: Test A preemergence; conditions: Preemergence, 1000 g ai/ha; 0 is no effect, 100 is complete control
Summary of the method: as §1

[6] = test system: giant foxtail (Setaria faberii); assay: Test A preemergence; conditions: Preemergence, 1000 g ai/ha; 0 is no effect, 100 is complete control
Summary of the method: as §1

[7] = test system: ragweed (common ragweed, Ambrosia elatior); assay: Test A postemergence; conditions: Ambrosia artemisiifolia, post-emergence, 240 h, 1000 g ai/ha, postemergence; 0 to 100 scale, 0 no effect, 100 complete control; read-out: Plant response rating, Ragweed
Summary of the method: as §1

[8] = test system: Galium (catchweed bedstraw, Galium aparine); assay: Test A postemergence; conditions: Galium, post-emergence, 240 h, 1000 g ai/ha, postemergence; 0 to 100 scale, 0 no effect, 100 complete control; read-out: Plant response rating, Galium
Summary of the method: as §1

[9] = test system: morningglory (Ipomoea spp.); assay: Test A postemergence; conditions: Ipomoea, post-emergence, 240 h; 1000 g ai/ha, postemergence; 0 to 100 scale, 0 no effect, 100 complete control; read-out: Plant response rating, Morningglory
Summary of the method: as §1

[10] = test system: pigweed (Amaranthus retroflexus); assay: Test A postemergence; conditions: Amaranthus retroflexus, post-emergence, 240 h, 1000 g ai/ha, postemergence; 0 to 100 scale, 0 no effect, 100 complete control; read-out: Plant response rating, Pigweed
Summary of the method: as §1

[11] = test system: barnyardgrass (Echinochloa crus-galli); assay: Test A postemergence; conditions: Echinochloa crus-galli, post-emergence, 240 h, 1000 g ai/ha, postemergence; 0 to 100 scale, 0 no effect, 100 complete control; read-out: Plant response rating, Barnyardgrass
Summary of the method: as §1

corn (Zea mays) = assay: Test A postemergence; conditions: Zea mays, post-emergence, 240 h, 1000 g ai/ha, postemergence; 0 to 100 scale, 0 no effect, 100 complete control
Summary of the method: as §1

Kochia (Kochia scoparia) [12] = assay: Test A postemergence; conditions: Bassia scoparia, post-emergence, 240 h, 1000 g ai/ha, postemergence; 0 to 100 scale, 0 no effect, 100 complete control; read-out: Plant response rating, Kochia
Summary of the method: as §1

[13] = test system: wheat (Triticum aestivum); assay: Test A postemergence; conditions: Triticum aestivum, post-emergence, 240 h, 1000 g ai/ha, postemergence; 0 to 100 scale, 0 no effect, 100 complete control; read-out: Plant response rating, Wheat
Summary of the method: as §1

[14] = test system: blackgrass (Alopecurus myosuroides); assay: Test A postemergence; conditions: Alopecurus myosuroides, post-emergence, 240 h, 1000 g ai/ha, postemergence; 0 to 100 scale, 0 no effect, 100 complete control; read-out: Plant response rating, Blackgrass
Summary of the method: as §1

[15] = test system: ryegrass, Italian (Italian ryegrass, Lolium multiflorum); assay: Test A postemergence; conditions: Lolium multiflorum, post-emergence, 240 h, 1000 g ai/ha, postemergence; 0 to 100 scale, 0 no effect, 100 complete control; read-out: Plant response rating, Ryegrass, Italian
Summary of the method: as §1

[16] = test system: giant foxtail (Setaria faberii); assay: Test A postemergence; conditions: Setaria faberi, post-emergence, 240 h, 1000 g ai/ha, postemergence; 0 to 100 scale, 0 no effect, 100 complete control; read-out: Plant response rating, Foxtail, Giant
Summary of the method: as §1

O=C(CN1C[C@H](c2cc(F)cc(F)c2)[C@@H](C(=O)Nc2cccc(F)c2F)C1=O)c1ccccc1 [Compound 784] was tested, and the “Ragweed plant response rating (0 to 100 scale)” value [1] was 0, the “Pigweed plant response rating (0 to 100 scale)” value [2] was 0 and the “Barnyardgrass plant response rating (0 to 100 scale)” value [3] was 80. For the same compound, the “Kochia plant response rating (0 to 100 scale)” value (Kochia (Kochia scoparia) [4]) was 0, the “Ryegrass, Italian plant response rating (0 to 100 scale)” value [5] was 0 and the “Foxtail, Giant plant response rating (0 to 100 scale)” value [6] was 90. The pest or weed control at 1000 g/ha [7] was 0%, the pest or weed control at 1000 g/ha [8] was 0% and the pest or weed control at 1000 g/ha [9] was 0%. For the same compound, the pest or weed control at 1000 g/ha [10] was 0%, the pest or weed control at 1000 g/ha [11] was 90% and the Corn plant response rating (crop injury, 0 = no effect, 100 = complete kill) at 1000 g/ha (corn (Zea mays)) was 0%. For the same compound, the pest or weed control at 1000 g/ha (Kochia (Kochia scoparia) [12]) was 0%, the plant injury at 1000 g/ha [13] was 0% and the pest or weed control at 1000 g/ha [14] was 20%. The pest or weed control at 1000 g/ha [15] was 0% and the pest or weed control at 1000 g/ha [16] was 90%.
